Data from a melting point compilation (Tetko et al.).

SMILES | melting point
CCC(C)(C)c1ccc(OCCCC(=O)O)c(C(C)(C)CC)c1 | 99 to 101 °C
Nc1cc(N2CCCS2(=O)=O)ccc1F | 102 to 104 °C
CC(=O)N1c2ccc(S(=O)(=O)Cl)cc2CC1C (stereo unspecified) | 112 to 114 °C
Nc1nc2ccccc2n1-c1ccc(F)cc1 | 164 to 166 °C
COc1ccc(Br)c(-c2nnn[nH]2)c1 | 209 to 211 °C
O=S1(=O)CCC(Cl)CC1 | 129 to 131 °C
Clc1cnc2nc(Cl)oc2c1 | 68 to 70 °C
N#Cc1cc(S(N)(=O)=O)ccc1F | 142 to 144 °C
COC(=O)c1cc(O)c(C)c(F)c1 | 129 to 131 °C
Cc1c(C(=O)O)cnn1-c1ccccc1Cl | 149 to 151 °C
CC1CCCC(C)N1C(=O)COc1ccc(C(=O)O)cc1 (stereo unspecified) | 205 to 215 °C
N#Cc1cnc2ccccc2c1Cl | 128 to 130 °C
O=C1Nc2ccccc2S(=O)(=O)N1 | 301 to 303 °C
CC1CCc2c(C(=O)O)csc2C1 (stereo unspecified) | 178 to 180 °C
COc1ccc(C2C(CO)CCC(=O)N2C)cc1 (stereo unspecified) | 119 to 121 °C
O=C(O)c1csc2c1CCCC2 | 159 to 161 °C
O=C(O)c1ccccc1C(=O)N1CCCCC1 | 109 to 111 °C
Cc1c(Cl)cnc(NC(=O)CCl)c1Cl | 268 to 270 °C
O=C(O)Cn1cc([N+](=O)[O-])cn1 | 153 to 155 °C
COC(=O)c1cc(OC)c(OC(F)F)cc1[N+](=O)[O-] | 96 to 98 °C
O=C(O)c1nnn(-c2ccccc2)c1C(F)(F)F | 132 to 134 °C
NC(=NO)c1cccc(CN2CCCCC2)c1 | 153 to 155 °C
CC1CCCCN1S(=O)(=O)c1ccc(C(=O)O)cc1 (stereo unspecified) | 201 to 205 °C
NC(=S)Cc1nc2ccccc2[nH]1 | 204 to 207 °C

SMILES | melting point
Cc1ccc(N)cc1S(=O)(=O)NC1CC1 | 131 to 133 °C
CC(C)(C)OC(=O)NC(C)(C(=O)O)C1CC1 (stereo unspecified) | 140 to 142 °C
O=C(O)c1cc2ccc(F)cc2[nH]1 | 227 to 229 °C
CS(=O)(=O)Nc1ccc(C(=O)O)c(O)c1 | 227 to 229 °C
Cc1ccc(C)c(-n2nnnc2SCC(=O)O)c1 | 157 to 159 °C
CC(C)(C)OC(=O)NCC1CC2CCCC(C1)N2 (stereo unspecified) | 219 to 221 °C
CC(C)(C)n1cc(C(=O)O)c(Br)n1 | 163 to 165 °C
CCOC(=O)c1nc(Cl)c2ccccc2n1 | 99 to 101 °C
CCN(CC)S(=O)(=O)c1ccc(N2CCNCC2)c([N+](=O)[O-])c1 | 131 to 133 °C
Cc1nc(Cl)cc(-c2ccccn2)n1 | 75 to 77 °C
N#Cc1cccc(C(=O)NNC(=O)CCl)c1 | 199 to 201 °C
Cc1cc(=O)[nH][nH]1 | 223 to 225 °C
O=C(O)c1cccc2cccc(-c3cccc4cccc(C(=O)O)c34)c12 | 284 to 286 °C
O=C(O)CN(Cc1ccccc1)S(=O)(=O)c1ccc(Cl)cc1 | 149 to 151 °C
Nc1ccc(OCc2cccnc2)cc1 | 79 to 81 °C
NC(=O)C1(N2CCNCC2)CCCC1 | 138 to 140 °C
Cc1nc(Cl)c2c(n1)CCCC2 | 30 to 32 °C
CCSc1ccc(C(=O)O)cn1 | 123 to 125 °C
O=C1NCCS1 | 51 to 53 °C
O=C1CCCc2sccc2N1 | 119 to 121 °C
OC1COc2ccc(Br)cc21 (stereo unspecified) | 79 to 81 °C
CN(C)c1ncnc(Cl)c1N | 114 to 116 °C
Nc1nonc1-c1ccc(Br)cc1 | 141 to 143 °C
Cc1cc(O)c(C#N)c(C)n1 | 301 to 303 °C

SMILES | melting point
CC1(COS(C)(=O)=O)COC1 | 32 to 34 °C
CCc1ccc(OCc2nnc(S)n2C(C)c2ccccc2)cc1 (stereo unspecified) | 143 to 145 °C
CC(C)(C)CNC(=O)c1ccc(C(=O)O)cn1 | 239 to 241 °C
NS(=O)(=O)c1ccc(C(=O)O)cc1F | 274 to 276 °C
NC(C(=O)O)c1cc(F)ccc1F (stereo unspecified) | 229 to 231 °C
Cc1cc(O)n2ncnc2c1 | 254 to 256 °C
Nc1ccc(S(=O)(=O)Nc2ccc([N+](=O)[O-])cc2)cc1 | 162 to 164 °C
COc1ccc(OC)c(-c2cc(C(=O)O)no2)c1 | 192 to 194 °C
CC(C)NC(=O)Cc1ccc(N)cc1 | 153 to 155 °C
COc1ccc(C(O)C2CC2)c(C)c1 (stereo unspecified) | 39 to 41 °C
O=C(CCl)Nc1ccccc1C(=O)NC1CC1 | 170 to 172 °C
Cc1ccc(-c2csc(=O)n2CC(=O)O)cc1 | 128 to 130 °C
Nc1ccc(OCCO)cc1C(F)(F)F | 73 to 75 °C
CSc1ccc(OC(C)C(=O)O)cc1 (stereo unspecified) | 94 to 96 °C
O=S(=O)(Cl)/C=C/c1ccccc1 | 80 to 88 °C
CN1C(=O)CCC(CO)C1c1cccc(Cl)c1 (stereo unspecified) | 122 to 124 °C
COc1ccc(Nc2ccccc2)cc1 | 104 to 106 °C
O=C(Cc1ccccc1)C[N+](=O)[O-] | 48 to 50 °C
Cc1cc2cc[nH]c(=O)c2n1C | 224 to 226 °C
CS(=O)(=O)Cc1nc(Cl)c(Br)c(Cl)n1 | 174 to 176 °C
NC(c1ccc(Cl)cc1)c1ccc(C(F)(F)F)cc1 (stereo unspecified) | 58 to 60 °C
CC(=O)CCc1ccc(OCCC(=O)O)cc1 | 102 to 104 °C
O=C(O)CN1N=C(C(F)(F)F)CC1=O | 218 to 220 °C
Nc1ccc2oc(=O)[nH]c2c1 | 204 to 206 °C

SMILES | melting point
CC(C)Oc1ccc(-c2nc(C(=O)O)cs2)cc1 | 203 to 205 °C
Cn1ccc(NC(=O)CC#N)n1 | 159 to 161 °C
O=C(O)c1cn(-c2ccccc2C(F)(F)F)nn1 | 129 to 131 °C
NC(=S)c1ccnc(-n2cncn2)c1 | 258 to 260 °C
Nc1cc(C(=O)O)c(F)cc1F | 169 to 171 °C
Brc1ccc(Cc2nnn[nH]2)cc1 | 172 to 174 °C
CN(C)CCCNS(=O)(=O)c1ccc(Cl)c([N+](=O)[O-])c1 | 98 to 100 °C
CC(=O)c1cc2c(cc1[N+](=O)[O-])OCO2 | 121 to 123 °C
CC(Cl)C(=O)c1ccc(NS(C)(=O)=O)cc1 (stereo unspecified) | 189 to 192 °C
CCC1Cc2c(Br)cccc2C(=O)N1 (stereo unspecified) | 101 to 103 °C
CCOc1cccc2[nH]c(C(=O)O)cc12 | 255 to 257 °C
Cc1cc(C)c(C(=O)CCl)c(C)c1C(=O)CCl | 136 to 138 °C
C=CCn1c(S)nc2cc3ccccc3cc2c1=O | 285 to 287 °C
Nc1cccc(Oc2ncc(Br)cn2)c1 | 92 to 94 °C
Cc1ccc(CNC(=O)C2CCNCC2)cc1 | 157 to 159 °C
Cc1cc(N)nc(N2CCOCC2)n1 | 102 to 104 °C
CC(C)(Nc1ccc([N+](=O)[O-])cc1)C(=O)O | 167 to 169 °C
CCCCc1ccc(NS(=O)(=O)c2ccc(C)c(C(=O)O)c2)cc1 | 192 to 194 °C
O=C1CC2(CCSC2)C(=O)O1 (stereo unspecified) | 83 to 85 °C
O=[N+]([O-])c1cc(Br)cc(S(=O)(=O)Cl)c1 | 47 to 49 °C
CS(=O)(=O)c1ccc(-c2nnc(N)o2)cc1 | 297 to 299 °C
CC(C)c1nc(C=O)c2ccccn12 | 95 to 97 °C
O=[N+]([O-])c1cc(S(=O)(=O)Cl)ccc1O | 52 to 54 °C
CC(=O)c1ccc(-c2ccc(C=O)o2)cc1 | 133 to 135 °C

SMILES | melting point
Nc1c(Cl)nc2ccccc2c1N | 178 to 180 °C
COC(=O)CCNc1ccncc1[N+](=O)[O-] | 93 to 95 °C
COc1cc(OC)c(N(C)S(=O)(=O)c2cccc(C(=O)O)c2)cc1Cl | 208 to 210 °C
NNc1nc(-c2cccnc2)no1 | 169 to 171 °C
Cc1[nH]n(-c2ccc(Br)cc2)c(=N)c1C | 131 to 133 °C
COC(=O)c1cc(Cl)cc(S(=O)(=O)Cl)c1 | 50 to 52 °C
CNCC(O)COc1ccc2c(c1)OCO2 (stereo unspecified) | 93 to 95 °C
O=C(CC(=O)C(F)F)c1ccco1 | 39 to 41 °C
O=C1CN(c2ccc(O)cc2)C(=O)N1 | 325 to 327 °C
O=c1[nH]cnc2cc(F)ccc12 | 260 to 262 °C
CCOC(=O)/C(C#N)=C\Nc1cc(F)cc(F)c1 | 174 to 176 °C
CC(Oc1cc(Cl)cc(Cl)c1)C(=O)O (stereo unspecified) | 142 to 144 °C
O=C(Nc1cccc(Cl)c1)OCC(F)(F)F | 35 to 37 °C
COc1cc2c(C#N)c(OC)nc(N)c2c(N)n1 | 249 to 251 °C
COc1ccccc1NC(=O)C(Br)C(C)C (stereo unspecified) | 107 to 109 °C
COC(=O)C(=O)CC(=O)c1cccc(Cl)c1 | 29 to 31 °C
COc1ccc2c(CCl)cc(=O)oc2c1 | 189 to 191 °C
COC(=O)c1c(C)n(C)c2ccc(O)cc12 | 223 to 225 °C
Cc1ccc(C)c(-n2cnc(O)n2)c1 | 166 to 168 °C
OC1CCN(c2nncc3ccccc23)CC1 | 135 to 137 °C
N#Cc1cnn2cc(C=O)cnc12 | 222 to 224 °C
Cc1c([N+](=O)[O-])cccc1S(=O)(=O)Cl | 47 to 49 °C
O=C(O)COc1ccc(C2SCCS2)cc1 | 137 to 139 °C
Cc1noc(C2(C)CCN(C(=O)OC(C)(C)C)CC2)n1 | 80 to 82 °C

SMILES | melting point
COC(=O)c1ccc(CNC(=O)C(C)Cl)cc1 (stereo unspecified) | 96 to 98 °C
CCCOc1ccc(Cl)cc1C(=O)O | 59 to 61 °C
CCOC(=O)C(=O)c1cc(F)ccc1OC | 49 to 51 °C
COc1ccc(-n2c(C)cc(C(=O)O)c2C)cc1 | 232 to 234 °C
O=Cc1ccc(N2CCC(O)CC2)o1 | 103 to 105 °C
CCOC(=O)c1cnn2c(O)cc(CCl)nc12 | 215 to 217 °C
Cc1sc(=O)n(CCC(=O)O)c1C | 150 to 152 °C
Nc1ncccc1-c1ccccc1 | 103 to 105 °C
CC(C)(C)OC(=O)NC1CCN(c2ccc(C#N)cn2)CC1 | 188 to 190 °C
O=[N+]([O-])c1ccc(S(=O)(=O)Cl)c(C(F)(F)F)c1 | 78 to 80 °C
O=C(NCCO)c1ccc(Cl)nn1 | 119 to 121 °C
CCOC(=O)c1c(C)[nH]c(C(=O)C(C)Cl)c1C (stereo unspecified) | 148 to 150 °C
N#CC1(C(=O)O)CCC1 | 64 to 66 °C
NCC1CCN(c2ccncc2)CC1 | 72 to 74 °C
CCOC(=O)c1c(NC(N)=S)sc(C)c1C | 207 to 209 °C
NNC(=O)Cc1cn2ccsc2n1 | 97 to 101 °C
CC(C)(C)OC(=O)NCC(=O)NN | 79 to 81 °C
OCC#Cc1ccc(Oc2ccccc2)cc1 | 42 to 44 °C
CC1(c2cccs2)NC(=O)NC1=O (stereo unspecified) | 137 to 139 °C
NC(C(=O)O)c1cccs1 (stereo unspecified) | 208 to 210 °C
O=C1c2ccccc2C(=O)N1CC1(CO)CCCC1 | 83 to 85 °C
